“Also recorded” adds a separate entry of the source.
Key:
Assay type in all cases: cell-based
[1] = test system: HepG2 cells; assay: Confocal microscopy: lipid droplets in oleate induced HepG2 cells; set-up: key to Reduction in Lipid Droplets: + = slight or in insignificant; ++ = Moderate; +++ and ++++ = active; +++ and ++++ = active; +++++ = very active
Method in brief: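 HepG2 cells were loaded with 250 μM oleate and given compound in DMSO (10 μM screen; 10 nM–5 μM dose series) for 24 h; BSA as negative control. Lipid droplets stained with BODIPY/Hoechst, imaged confocally; mean droplets per cell counted over ~20 cells versus oleate-only cells.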

[2] = test system: ATGL; assay: Western blot of ATGL level in HepG2 cells; set-up: key to Increase in ATGL level: + = slight or in insignificant; ++ = Moderate; +++ and ++++ = active; +++ and ++++ = active; +++++ = very active; conditions: HepG2 cells, western blot, score
Method in brief: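 HepG2 cells were treated with compound 24 h (10 μM screen; 50 nM–5 μM dose series) and lysed. 30 μg protein was western blotted for ATGL, with actin as loading reference. ATGL increase was expressed as percent of the 1.6-fold siCOP1 maximum and plotted against log concentration for EC50.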

[3] = test system: ATGL; assay: Immunoprecipitation assay of ATGL ubiquitination in myc-ATGL HepG2 cells; conditions: 5 μM, 24 hours, MG-132, poly ubiquitin smear
Method: To this end, an immunoprecipitation assay was performed wherein HepG2 cells overexpressing myc-ATGL were transfected with HA-Ubiquitin and treated with 5 μM of the compounds 9, 10, 107, 215, 219 and 238. MG-132, a proteasomal inhibitor, was added 4 hours before harvesting the cells. Immune complexes were pulled down with anti-myc antibody and immunoblot was done using anti-HA antibody. The resultant smears on the blot reflect the ubiquitination status of ATGL.
For checking the change in the ubiquitination status of ATGL on compound treatment, Myc-ATGL expressing HepG2 cells (ATGL overexpressing cell line) was transfected with 2 μg of a plasmid harboring the HA tagged ubiquitin gene using Lipofectamine 2000 reagent (Invitrogen) in OptiMEM media (HiMedia). Fresh DMEM complete media was added after 8-10 hours of transfection. After roughly 24 hours of transfection, 5 μM of the compounds 9, 10 and 107 was added and cells were harvested post 24 hours of treatment. 4 hours prior to cell harvesting, 10 μM of proteasomal inhibitor MG132 (Calbiochem, Merck Millipore) was added to the cells. Proteins were isolated from the cells and protein concentration was estimated as described previously. 30 μl of PureProteome Protein A/G Mix Magnetic Beads (Merck Millipore) was taken in a 1.5 ml microcentrifuge tube, placed in a Magna Rack (Merck Millipore) and allowed to adhere to the side of the tube. 200 μg of protein was used for immunoprecipitation reaction in a reaction volume of 1 ml. 2 μl of anti-Myc primary antibody (Cell Signaling Technology) was added and the tube was incubated overnight at 4° C. in a rotary shaker. The next day, the tube was placed back in the Magna Rack and the beads were allowed to attach to the tube. To remove non-specific and unattached reactants, 1×PBS and 0.1% Triton-X was used for washing. 2× loading dye and Lysis Buffer was added and heated at 95° C. for 10 minutes to allow the immune complex to dislodge from the magnetic beads. Western Blot was performed subsequently as described before with anti-HA primary antibody for immunoblotting (Cell Signaling Technology). The activity trends of the synthesized compounds are disclosed in Table-5.

[4] = molecular target: COP1 (Homo sapiens, UniProt Q8NHY2); assay: Immunoprecipitation assay of COP1 autoubiquitination in HepG2 cells; conditions: 5 μM, 24 hours, MG-132
Method: COP1 is capable of auto ubiquitinating its own self and getting degraded via the proteasomal pathway. To probe into this, HepG2 cells were co-transfected with HA tagged Ubiquitin and myc-flag tagged COP1. The transfected cells were treated with 5 μM of compounds 9, 10, 107 and 238 for 24 hours. MG-132, a proteasomal inhibitor, was added 4 hours before harvesting the cells. Immune complexes were pulled down with anti-myc antibody and immunoblot was done using anti-HA antibody. […] Thus, the compounds of the present disclosure could be potent therapeutic targets by being able to block the proteasomal degradation of ATGL which would then be able to carry out its lipolytic action and reverse the symptoms of steatosis.
For checking the autoubiquitination status of COP1, HepG2 cells were cotransfected with 2 μg each of Myc-DDK-COP1 and HA-Ub plasmids using Lipofectamine 2000 reagent (Invitrogen) in OptiMEM media (HiMedia). The rest of the procedure is similar to that done for Myc-ATGL.

[5] = test system: ATGL; assay: Reversal of ATGL decrease in COP1 overexpressing HepG2 cells; conditions: myc-DDK-COP1, 5 μM, 24 hours
Method: COP1 is an E3 ubiquitin ligase with ATGL as one of its targets for ubiquitination and subsequent proteasomal degradation by 26S proteasome. Therefore, it is only legit for ATGL levels to decrease upon COP1 overexpression. To this end, HepG2 cells were transfected with 500 ng of myc-DDK-COP1 plasmid using Lipofectamine 2000 and treated with 5 μM of the compounds 9 and 10 for 24 hours. 48 hours post transfection, cells were harvested and western blot was carried out.

Sequence of COP1 (Q8NHY2 whole entry): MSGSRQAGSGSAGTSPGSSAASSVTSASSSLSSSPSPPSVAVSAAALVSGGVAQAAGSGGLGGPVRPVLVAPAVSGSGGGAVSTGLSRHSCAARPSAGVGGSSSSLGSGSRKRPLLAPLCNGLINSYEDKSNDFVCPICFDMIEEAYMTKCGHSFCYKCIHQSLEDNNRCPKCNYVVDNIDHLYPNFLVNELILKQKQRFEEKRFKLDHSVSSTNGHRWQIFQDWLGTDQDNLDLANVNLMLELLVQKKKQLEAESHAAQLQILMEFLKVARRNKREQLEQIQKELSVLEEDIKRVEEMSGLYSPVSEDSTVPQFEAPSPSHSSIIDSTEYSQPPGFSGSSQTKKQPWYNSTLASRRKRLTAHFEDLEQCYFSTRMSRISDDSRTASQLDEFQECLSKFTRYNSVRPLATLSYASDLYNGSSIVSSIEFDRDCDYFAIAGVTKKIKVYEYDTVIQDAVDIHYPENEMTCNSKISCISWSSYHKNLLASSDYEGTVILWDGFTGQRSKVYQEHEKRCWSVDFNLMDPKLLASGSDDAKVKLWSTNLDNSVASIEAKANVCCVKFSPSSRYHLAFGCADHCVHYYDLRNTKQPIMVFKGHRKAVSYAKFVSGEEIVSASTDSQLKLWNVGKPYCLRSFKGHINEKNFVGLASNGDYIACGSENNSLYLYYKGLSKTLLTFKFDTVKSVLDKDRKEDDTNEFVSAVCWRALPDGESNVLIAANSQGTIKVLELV

For `COCCn1cnc2ccc(NC(=O)Nc3ccc(C(C)=O)cc3)cc2c1=O` [Compound 10, 1-(4-acetylphenyl)-3-(3-(2-methoxyethyl)-4-oxo-3,4-dihydroquinazolin-6-yl)urea], which “Number of lipid droplets” value ([1]; HepG2 cells, 250 μM oleate induction) is on record?
Its value is “decrease in the number of lipid droplets”.

What about the “Reduction in Lipid Droplets” value ([1]; oleate induced HepG2 cells, score) of the same compound?
The value was “++++”.

And the “Increase in ATGL level” value [2]?
Its value is “++++”.

What about the “ATGL ubiquitination in HepG2 cells” value [3] of the same compound?
The value was “reduction, however, could not be seen”.

What about the “COP1 autoubiquitination in HepG2 cells” value [4] of the same compound?
The value was “markedly reduce COP1's auto ubiquitination property”.

What about the “Restoration of ATGL level upon COP1 overexpression” value [5] of the same compound?
Its value is “could restore the reduced ATGL level; also recorded: could restore ATGL to its normal level”.

— patent US12528777B2, “Quinazolinones derivatives for treatment of non-alcoholic fatty liver disease, preparation and use thereof” (Council of Scientific and Industrial Research, priority 2020, dated 2026)
